Experimental data taken from US20180369426A1, “COMPOSITIONS COMPRISING FLUORESCENT DYES ASSOCIATED WITH VIRAL COMPONENTS FOR NERVE IMAGING” (priority 2008, published 2018).

System: footpad nerves
Test: Mouse footpad injection, ICG fluorescence imaging of nerves (Example 3)
Assay type: in vivo
Details: 10 μL into footpad, imaged 2 hours after injection, back dissected (FIG. 3A)
Method: Example 3 is a comparison of imaging with a fluorescent dye alone versus a fluorescent dye bound to the virus. Unless otherwise specified, all images are digital images obtained from a CCD camera.
A mouse ([…]) was briefly anesthetized by halothane inhalation. The right footpad of the mouse was injected with 10 μL of ICG, phosphate buffered saline (PBS) and a virus mutant, HSV-2 ΔRR (“ICG/PBS/HSV-2 ΔRR mixture”). The left footpad was injected with 10 μl of ICG/PBS mixture as a control. The same concentration of ICG was present in both mixtures.
2 hours after footpad injections, the mouse was anesthetized and then euthanized with interperitoneal injection of sodium pentobarbital. ICG fluorescence images were acquired first of the intact mouse and then at various stages of dissection.

SMILES: CC1(C)C(/C=C/C=C/C=C/C=C2\N(CCCCS(=O)(=O)O)c3ccc4ccccc4c3C2(C)C)=[N+](CCCCS(=O)(=O)[O-])c2ccc3ccccc3c21 [ICG, indocyanine green]
- extent of fluorescence after footpad injection: limited to the left foot itself
